The source of these data is EP0536208B1, “1,2-DIHYDRO-3H-DIBENZISOQUINOLINE-1,3-DIONE ANTICANCER AGENTS” (RESEARCH CORPORATION TECHNOLOGIES, INC., priority 1990, dated 1992).

The test system of experiment [1] is 2780/AD. Description: In vitro tumor cell viability assay using MTT dye. It is filed as cell-based, Human. As to the method:
(§1) Compounds of the present invention were tested for their in vitro activity in tumor cells sensitive and resistant to standard anti-cancer agents. The tumor cell lines used in this protocol are 8226 human Myeloma^1; 8226/Dox-40^2, L-1210/Murine Leukemia, multidrug resistant L-210/^3, 2780 Human Ovarian Cancer and 2780/AD^4. Each of these resistant cell lines is known as a multidrug resistant or "MDR" cell line. These cell lines produce a 170,00 molecular weight membrane protein termed the P-glycoprotein which acts as an active drug efflux pump. Thus, once a cell produces the P-glycoprotein, it has the capability of pumping out of the cell a large variety of unrelated natural products. […] The protocol for measuring the effectiveness of compounds of the present invention is as follows: 2) In Vitro Tumor Cell Viability Assays Using MTT-Dye: Tumors are processed into a single cell suspension as described above. The cells are plated at a concentration of 3-5 X 10^4/1 mL well into plastic 96-well plates. […] Afterwards the medium containing the drug is removed, the cells are "washed" by centrifugation in fresh medium or phosphate-buffered saline (pH 7.4). A tetrazolium dye is then added (3,4,5-dimethylthiazol-2-yl)-2,5-diphenyl tetrazolium bromide (MTT). This dye forms a colored formazan product upon activation by mitochondrial reductases in viable cells. Typically, the formazan product is solubilized in acid-propanol or DMSO. The intensity of the color is proportional to viable cell numbers and this is quantitated by spectrophotometric absorbance ([…]) on a micro ELISA plate reader. Test results are calibrated in % control absorbance from untreated tumor cells (Mossman T: J Immunol Meth 65:55-63, 1983). Using the above procedure, Compound 1 was tested for its cytotoxic activity with respect to various tumor cell lines.
(In general: Tetrazolium dyes change colour on reduction, which living cells bring about.)

The test system of experiment [2] is 8226/DOX-40. Nature of the experiment: In vitro tumor cell viability assay using MTT dye. The conditions noted are these: for IC50: Homo sapiens. Format: cell-based, Human. The protocol: as §1
In experiment [3] the test system is LOVOp32. Nature of the experiment: Activity against human colon tumor cells (MTT assay, 3 day drug exposure). Format: cell-based. The conditions noted are these: cells plated 24 hr. prior to drug addition, read-out: Concentration for 50% inhibition of colony formation for human colon tumors. The protocol: (§2) For example, the compounds of the present invention were evaluated for cytotoxic activities in cloned human colon carcinomas. The clonogenic assays were conducted in accordance with the procedure described hereinbelow: 1) Colony Forming Assays in Soft Agar: Fresh human or murine tumors are disaggregated into single cell suspensions using mechanical, hypoosmotic and/or enzymatic (trypsin) methods. The single cells (about 5 X 10^4-10^5) are plated in 35 mm plastic petri dishes onto a 1 ml "feeder layer" of 0.3% agar dissolved in growth medium containing 5-10% vol/vol of heat-inactivated fetal bovine serum, molten 0.3% agar and the antibiotics penicillin (100 u/mL) and streptomycin (100 ug/mL). Drug exposures can be performed for one hour or continuously (drugs added to final plating medium). Tumor cell colonies > 60 uM in size are counted by automated image analysis after 10-20 days of incubation in a humidified, 5-10% CO2-gassed environment maintained at 37°C. Inhibition of colony formation is calculated based on comparisons to control (untreated) plates wherein the growth of hundreds of colonies/plate is typical. (Salmon SE, et al., N Engl J Med 298(24):1321-1327, 1978).
(§3) Compounds of the present invention were tested for their in vitro activity in tumor cells sensitive and resistant to standard anti-cancer agents. The tumor cell lines used in this protocol are 8226 human Myeloma^1; 8226/Dox-40^2, L-1210/Murine Leukemia, multidrug resistant L-210/^3, 2780 Human Ovarian Cancer and 2780/AD^4. Each of these resistant cell lines is known as a multidrug resistant or "MDR" cell line. These cell lines produce a 170,00 molecular weight membrane protein termed the P-glycoprotein which acts as an active drug efflux pump. Thus, once a cell produces the P-glycoprotein, it has the capability of pumping out of the cell a large variety of unrelated natural products. […] The protocol for measuring the effectiveness of compounds of the present invention is as follows: 2) In Vitro Tumor Cell Viability Assays Using MTT-Dye: Tumors are processed into a single cell suspension as described above. The cells are plated at a concentration of 3-5 X 10^4/1 mL well into plastic 96-well plates. Growth medium containing 5-10% (vol/vol) heat-inactivated fetal bovine serum and penicillin/streptomycin (as above) is added prior to incubation at 37°C for six days. Afterwards the medium containing the drug is removed, the cells are "washed" by centrifugation in fresh medium or phosphate-buffered saline (pH 7.4). A tetrazolium dye is then added (3,4,5-dimethylthiazol-2-yl)-2,5-diphenyl tetrazolium bromide (MTT). This dye forms a colored formazan product upon activation by mitochondrial reductases in viable cells. Typically, the formazan product is solubilized in acid-propanol or DMSO. The intensity of the color is proportional to viable cell numbers and this is quantitated by spectrophotometric absorbance ([…]) on a micro ELISA plate reader. Test results are calibrated in % control absorbance from untreated tumor cells (Mossman T: J Immunol Meth 65:55-63, 1983). Using the above procedure, Compound 1 was tested for its cytotoxic activity with respect to various tumor cell lines.

The test system of experiment [4] is 205p14. The description is as above. It is filed as cell-based. Particulars: cells plated 24 hr. prior to drug addition, read-out: Concentration for 50% inhibition of colony formation for human colon tumors. As to the method: as §2, §3
Experiment [5] concerns Resistant L1210. Nature of the experiment: In vitro tumor cell viability assay using MTT dye. The conditions noted are these: for IC50: Mus musculus. Format: cell-based, Murine. As to the method: as §1
Experiment [6] has as its system FRESH HUMAN TUMORS. Description: Colony forming assay in fresh human tumors, all tumor types. The conditions noted are these: Total of all tumor types; .001 ug/mL continuously; tumor cell survival of less than 50% of control. Format: cell-based. The protocol:
as §2, with “The” for “For example, the compounds of the present invention were evaluated for cytotoxic activities in cloned human colon carcinomas. The”, “(Salmon SE, et al., N Engl J Med 298(24):1321-1327, 1978).” left out
Fresh human tumor specimens disaggregated to single cell suspensions and exposed to .001 ug/mL of drug continuously. Percent survival represents the fraction of tumor colonies (> 60 uM size) obtained after drug treatment compared to untreated cells of the same tumor. […] Each tumor sample is analyzed in three different petri dishes (i.e., n = 3 for each sample).

The structures appear in SMILES notation. pIC50: −log10 of the molar value. Values after ≈ are worked out from the molar mass of the structure shown. Where two headings read alike, the source gives them in different places.

As for `CN(C)CCN1C(=O)c2cccc3cc4ccccc4c(c23)C1=O` [Compound 1, 2-[2'-(dimethylamino)ethyl]-1,2-dihydro-3H-dibenz(deh)isoquinoline-1,3-dione], the “Cross Resistance” value in experiment [1] (2780/AD versus 2780 Human Ovarian Cancer) is “None”; in experiment [2] (8226/DOX-40 versus 8226 Human Myeloma) it was 3-fold; in experiment [5] (resistant L-1210/ versus L-1210/Murine Leukemia), “None”. Besides, the IC50 in experiment [1] (Homo sapiens, 96 h, 2780/AD MDR, P-glycoprotein (+), 10-fold resistance to Doxorubicin, 4-day drug exposure, MTT dye reduction) came out at 2.7 µg/mL (≈ 8.48 µM); in experiment [2] (96 h, 8226/DOX-40, 40-fold resistant to Doxorubicin, 4-day drug exposure, MTT dye reduction, read-out: Activity (IC50)), 0.036 µg/mL (≈ 0.113 µM); in experiment [2] (8226 Myeloma Cells Resistant, continuous exposure, MTT dye assay, read-out: IC50 VALUES) it was 0.03 µg/mL (≈ 0.0942 µM); in experiment [5] (144 h, Resistant L1210, six day MTT assay, continuous drug exposure, read-out: Concentration for 50% inhibition of tumor cells), 0.0025 µg/mL (≈ 0.00785 µM); in experiment [5] (L1210, 96 h, L-1210/ MDR, P-glycoprotein (+), 10-fold resistance to Mitomycin C, 4-day drug exposure, MTT dye reduction, read-out: Activity (IC50)), 0.003 µg/mL (≈ 0.00942 µM); in experiment [5] (L1210 Leukemia Cells Resistant, continuous exposure, MTT dye assay, read-out: IC50 VALUES) it was 0.0025 µg/mL (≈ 0.00785 µM). Also, the pIC50 in experiment [3] was 6.52; in experiment [4], 6.40. Besides, in experiment [6], the “Overall Response” value amounted to 51%.
